Test results taken from patent US12336973B2, “Cancer therapeutic compositions and methods targeting DNAse1L3” (Providence Health & Services—Oregon, priority 2020, dated 2025).

Tested on: dendritic cells
Assay: Dendritic cell maturation (CCR7 expression by flow cytometry) in co-culture with untreated or irradiated cancer cells
Type: cell-based
Details: DCs cultured with untreated (0Gy) or irradiated (8Gy) cancer cells; 0, 50 or 100 micromolar FCA; flow cytometry 24 hours after culturing
Procedure: FIG. 4 depicts CCR7 expression in DCs that were cultured with cancer cells, where the cancer cells were untreated (0Gy) or irradiated (8Gy). These co-cultures were treated with 0, 50, or 100 micromolar Fmoc-d-cyclohexylalanine (FCA) to inhibit DNAse1L3.
Dendritic cells were cultured (with untreated or irradiated cancer cells) and treated with increasing doses of FCA, an inhibitor of DNAse1L3 (FIG. 4). Cancer cells were co-cultured with dendritic cells and were treated with 0, 50, or 100 micromolar Fmoc-d-cyclohexylalanine (FCA) to inhibit DNAse1L3.
CCR7 expression on DCs was assessed by flow cytometry 24 hours after culturing.

Compound: O=C(N[C@H](CC1CCCCC1)C(=O)O)OCC1c2ccccc2-c2ccccc21 [FCA, Fmoc-d-cyclohexylalanine]
- dendritic cell maturation assessed by upregulation of markers including CCR7: stimulates DC maturation
